What was measured:
[1] = test system: panel of 12 cancer cell lines of 9 different histological origins; experiment: Long-term cell growth assay (crystal violet), 12 non-melanoma cancer cell lines; type: cell-based; conditions: 9-12 days; in most cases
Procedure: (§1) FIGS. 1A-1B show long-term cell growth assay of 12 non-melanoma cancer cell lines (FIG. 1A) and 12 BRAF-mutant melanoma cell lines (FIG. 1B) that were treated with 6-thio-dG (6dG) or BIBR 1532 (BIBR) at indicated doses for 9 to 12 days.
Treatment of a Variety of Cancer Cell Lines with Telomerase-directed 6-thio-dG Impairs Cell Viability. […] To further confirm the inhibitory effect of 6-thio-dG, a panel of 12 cancer cell lines of 9 different histological origins was treated with 6-thio-dG for 9-12 days. As the control for 6-thio-dG, a known telomerase inhibitor, BIBR 1532, was also included. In most cases, these cancer cell lines were sensitive to 6-thio-dG administered at a dose of 2.5 μM and higher (FIG. 1A).

[2] = test system: 12 BRAF-mutant human metastatic melanoma cell lines; experiment: Long-term cell growth assay, 12 BRAF-mutant melanoma cell lines; type: cell-based; conditions: 9-12 days
Procedure: as §1
Given the prevalence of TERT promoter mutations in melanoma and the potency of telomerase-directed 6-thio-dG therapy in inhibiting cell proliferation of telomerase activity-positive lung and colon cancer cells, the efficacy of 6-thio-dG in the BRAF-mutant melanoma subtype was tested. To that end, a panel of 12 BRAF-mutant human metastatic melanoma cell lines were treated with 6-thio-dG and BIBR 1532 for 9-12 days, respectively.

[3] = test system: normal epidermal melanocytes; experiment: FACS analysis of apoptosis and cell death, normal melanocytes; type: cell-based; conditions: 120 hours
Procedure: (§2) Cells were then harvested and co-stained with PSVue643 and Propidium iodide (PI). Representative samples of 2 independent experiments.
(§3) FACS Analysis of Apoptosis and Cell Death. Adherent cells were harvested with 0.05% Trypsin-EDTA, pooled with floating cells and then washed once with 1×DPBS. Cells were then pelleted and stained with PSVue® 643 at 0.5 μM and Propidium iodide at 50 ug/ml diluted in TES buffer for 5 min in the dark. Cells were then immediately subjected to FACS analysis using a BD LSR II flow cytometer and at least 5,000 cells per sample were acquired.

[4] = test system: normal epidermal keratinocytes; experiment: FACS analysis of apoptosis and cell death, normal keratinocytes; type: cell-based; conditions: 120 hours
Procedure: as §2, §3

[5] = test system: LOX-IMVI BR cells; experiment: Telomere dysfunction Induced Foci (TIF) assay / γ-H2AX DNA damage foci; type: cell-based, human; conditions: 5 μM, compared to the control
Procedure: Telomere dysfunction Induced Foci (TIF) Assay. The TIF assay is based on the co-localization detection of DNA damage by an antibody against gamma-H2AX, and telomeres using FITC-conjugated telomere sequence ([…])3-specific peptide nucleic acid (PNA) probe. Briefly, LOX-IMVI-BR cells were seeded to 6-well plate (50,000 cells/well). After cells adhered to the surface (next day), 6-thio-dG was added with fresh medium. Cells were treated with or without 6-thio-dG at 5 μM every two days for 4 days. Then cells were harvested and cell numbers were counted. 100,000 cells were re-plated in 4-well chamber slides. After cells adhered to the chamber slide (next day), cells were rinsed twice with 1×PBS and fixed in 4% paraformaldehyde in PBS for 10 minutes. Cells were washed twice with PBS and permeabilized in 0.5% Triton X-100 in PBS for 10 minutes. Following permeabilization, cells were washed three times with PBS. Cells were blocked with 0.2% Fish gelatin and 0.5% BSA in PBS for 30 minutes. Gamma-H2AX (mouse) (Millipore, Billerica, MA) was diluted 1:1000 in blocking solution and incubated with cells for 2 hrs. […] Cells were fixed in 4% paraformaldehyde in PBS for 20 minutes at room temperature. […] Images were captured with Deltavision wide-field microscope using the 60× objective, then deconvoluted using Autoquant X3. Gamma-H2AX and TIFs were quantified using Imaris software.

[6] = test system: WM9 BR xenografts; experiment: WM9 BR xenograft tumor volume; type: in vivo, human; conditions: WM9 BR xenografts in mice
Procedure: (§4) Melanoma Xenotransplantation and In vivo Studies. 100,000 melanoma cells were harvested from cell culture and re-suspended in culture medium and Matrigel at a 1:1 ratio. Cells were subcutaneously injected into mice, which were treated with indicated inhibitors when the tumor volume reached 100 mm^3. Mice were sacrificed at the end time point and solid tumors were collected. All animal experiments were performed in accordance with Wistar IACUC protocol 112330 in NOD.[…] 1 Wjl/SzJ mice.

[7] = test system: LOX-IMVI BR xenografts; experiment: LOX-IMVI BR xenograft tumor volume; type: in vivo, human; conditions: LOX-IMVI BR xenografts in mice
Procedure: as §4

[8] = test system: 13-456-3-3 xenografts; experiment: 13-456-3-3 xenograft tumor volume; type: in vivo, human
Procedure: as §4

[9] = test system: mTOR-S6 signaling axis in 13-456-3-3 xenografts; experiment: RPPA of 13-456-3-3 xenografts; type: in vivo, human
Excerpt: (§5) Analysis of Gene Expression Microarray Data and Reverse Phase Protein Array (RPPA) Data. The raw data of gene expression microarrays generated from Illumina Chips were normalized, background-corrected and summarized using the R package “lumi”. […] To reduce false positives, the unexpressed probes were removed. The R package “limma” was employed for gene differential expression analysis, followed by multiple test correction by the Benjamini and Hochberg procedure. […] The inventors also conducted GSEA as previously reported. For GSEA, they analyzed gene sets obtained from the Molecular Signatures Database (world-wide-web at broadinstitute.org/gsea/msigdb/). The same differential expression analysis method was applied to RPPA data.

[10] = test system: mouse pancreatic cancer cell line G43; experiment: Long-term cell growth assay of G43 cells; type: cell-based; conditions: in vitro, 9 days
Excerpt: This work was further extended to non-melanoma therapy-resistant cancer cells in order to evaluate the efficacy of 6-thio-dG more broadly. The mouse pancreatic cancer cell line G43 was established from mouse pancreatic tumors harboring mutations in KRAS and P53 that progressed on radiation therapy and subsequently ipilimumab.

[11] = test system: ARID1A in G43 cells; experiment: RPPA of G43 cells treated in vitro; type: cell-based, mouse
Excerpt: as §5

[12] = test system: PEO4; experiment: Relative cell viability, PEO4; type: cell-based, human; conditions: 5 days
Procedure: (§6) Additionally, the efficacy of 6-thio-dG was tested using two human ovarian cancer cell lines, PEO4 and PEO1-CR. PEO4 is a derivative line of BRCA1/2-mutant PEO1 that regains homologous recombination by BRCA reversion mutation. […] Importantly, all three cell lines were sensitive to 6-thio-dG after the 5-day treatment (FIGS. 14H-14J).

[13] = test system: PEO1-CR; experiment: Relative cell viability, PEO1-CR; type: cell-based, human; conditions: 5 days
Procedure: as §6

[14] = test system: colon cancer cell line, HCT-116; conditions: Mender et al., 2015; cited from earlier work
[15] = test system: normal fibroblasts; conditions: previous study (Mender et al., 2015); cited from earlier work

SMILES: Nc1nc2c(ncn2[C@H]2C[C@H](O)[C@@H](CO)O2)c(=S)[nH]1 [6-thio-dG, 6-thio-2′-deoxyguanosine]
- dose at which the cell lines were sensitive (long-term cell growth) [1]: ≥ 2.5 µM
- anti-proliferative effect [2]: anti-proliferative effect
- cell viability of normal cells [3]: did not impair the cell viability
- cell viability of normal cells [4]: did not impair the cell viability
- DNA damage (γ-H2AX foci) [5]: induced DNA damage
- telomere dysfunction-induced foci (TIFs) [5]: increase in telomere dysfunction-induced foci
- in vivo growth of xenografts [6]: significantly impaired the in vivo growth
- in vivo growth of xenografts [7]: significantly impaired the in vivo growth
- anti-tumor activity in xenografts [8]: anti-tumor activity
- mTOR-S6 signaling axis (RPPA) [9]: down-regulated
- cell viability [10]: impaired cell viability
- ARID1A (RPPA) [11]: down-regulated
- sensitivity (relative cell viability) [12]: sensitive
- sensitivity (relative cell viability) [13]: sensitive
- cell viability [14]: inhibited cell viability
- sensitivity of normal fibroblasts [15]: not sensitive
